This is an account of results in patent EP4737449A1 (Changchun Genescience Pharmaceutical Co., Ltd., priority 2023, dated 2025).

In this assay the target is T1, p53-Y220C mutant protein (Homo sapiens, UniProt P04637, Y220C).
T1 construct: The recombinant Y220C p53 DBD protein with his-tag
Briefly: In vitro DNA binding activity assay (TR-FRET). The class given is biochemical. The settings on record: concentration required to increase the binding activity of protein to DNA by 50%. As to the method: The activity of the compound to modulate the binding of the p53-Y220C mutant protein to DNA was detected using TR-FREt (Time-Resolved Fluorescence Resonance Energy Transfer). The recombinant Y220C p53 DBD protein with his-tag and the DNA sequence with biotin label were prepared firstly. Donor Eu(Europium)-SA(Streptavidin) can be bound to the DNA sequence through biotin, receptor for his antibody attached to alphaphycocyanin(APC, allophycocyanin), and his antibody can be bound to the Y220C p53 DBD protein with his-tag. When exposed to an excitation light with a wavelength of 340 nm, the donor Eu(Europium)-SA(Streptavidin) can emit fluorescence with a wavelength of 615 nm. If the donor and the receptor are close to each other, the donor will transfer part of the energy to the receptor and produce fluorescence with a wavelength of 665 nm. […] If there is no interaction, only 615 nm fluorescence is produced. • 1) Experimental steps • a. Adding 4 µL of dilute compound solution to each well of a 384-well microplate; • a. Adding 4 µL of 4X P53 working solution to each well of the 384-well microplate; • c. Sealing the 384-well microplate and equilibrating the system at room temperature for 60 min; • d. Adding 4 µl of biotin DNA solution to the 384-well microplate; • e. Adding 4 µl of 4X test solution (MAb Anti-6His-Eu and streptavidin-d2) to each well of the 384-well microplate; • f. Incubating overnight in the dark; and • g. Reading data of 665 nm and 615 nm wavelengths on the BMG multifunctional microplate reader. • 2) Data analysis • a. Calculating the ratio for each well (Ratio665 nm/615 nm-Ratiobackground); • b. Calculating the activity percentage (%activity) as follows: C = (Ave_Ac−Ave_Ba)/(Ave_Dc−Ave_Bd) [formula] R data = (A−Ave_Ba−CD)/(D−Ave_Bd)*(Ave_Dc−Ave_Bd) [formula] % Activity = R data/Ave_VC*100 [formula] • A: Fluorescence intensity of the sample at 665 nm; D: Fluorescence intensity of the sample at 615 nm; • Ba: Background fluorescence intensity of the culture plate at 665 nm; Bd: Background fluorescence intensity of the culture plate at 615 nm; • Dc: Background fluorescence intensity of HIS-E at 615 nm; Ac: Background fluorescence intensity of streptavidin-d2 at 665 nm); and • c. Calculating SC150 and plotting dose-effect curve
Compared to the absence of the compound of the present invention, the activation percentage of binding of the p53 mutant protein to DNA in the presence of the compound of the present invention is expressed as SC150, which indicates the concentration of the compound required to increase the DNA binding activity of the p53 mutant protein by 50%. The SC150 is calculated using Prism™.
On to `CC(C)Cn1ncc(C(=O)NCC#Cc2nn3c(N[C@@H]4CCN(C)C[C@@H]4F)cccc3c2CC(F)(F)F)c1N` [Compound 286, 5-amino-N-[3-(7-{[(3S,4R)-3-fluoro-1-methylpiperidin-4-yl]amino}-3-(2,2,2-trifluoroethyl)pyrazolo[1,5-a]pyridin-2-yl)prop-2-yn-1-yl]-1-isobutyl-1H-pyrazole-4-carboxamide], for which the SC150 is listed as 8 nM.

`CN1CC[C@@H](Nc2cccc3c(CC(F)(F)F)c(C#CCNC(=O)c4cnn(CC(C)(C)C)c4N)nn23)[C@@H](F)C1` [Compound 287] showed an SC150 of 23 nM.

In the case of `Cc1nn(C(C)(C)C)c(N)c1C(=O)NCC#Cc1nn2c(N[C@@H]3CCN(C)C[C@@H]3F)cccc2c1CC(F)(F)F` [Compound 288, 5-amino-1-tert-butyl-N-[3-(7-{[(3S,4R)-3-fluoro-1-methylpiperidin-4-yl]amino}-3-(2,2,2-trifluoroethyl)pyrazolo[1,5-a]pyridin-2-yl)prop-2-yn-1-yl]-3-methyl-1H-pyrazole-4-carboxamide], the SC150 was 69 nM.

Regarding `Cc1cc(N)c(C(=O)NCC#Cc2nn3c(N[C@@H]4CCN(C)C[C@@H]4F)cccc3c2CC(F)(F)F)cn1` [Compound 294, 4-amino-N-[3-(7-{[(3S,4R)-3-fluoro-1-methylpiperidin-4-yl]amino}-3-(2,2,2-trifluoroethyl)pyrazolo[1,5-a]pyridin-2-yl)prop-2-yn-1-yl]-6-methylnicotinamide], the SC150 stood at 39 nM.

Regarding `Cc1ccc(C(=O)NCC#Cc2nn3c(N[C@@H]4CCN(C)C[C@@H]4F)cccc3c2CC(F)(F)F)c(N)n1` [Compound 295, 2-amino-N-[3-(7-{[(3S,4R)-3-fluoro-1-methylpiperidin-4-yl]amino}-3-(2,2,2-trifluoroethyl)pyrazolo[1,5-a]pyridin-2-yl)prop-2-yn-1-yl]-6-methylnicotinamide], the SC150 was found to be 45 nM.

The molecule `CN1CC[C@@H](Nc2cccc3c(CC(F)(F)F)c(C#CCNC(=O)c4ccn5c4CCC5)nn23)[C@@H](F)C1` [Compound 302, N-[3-(7-{[(3S,4R)-3-fluoro-1-methylpiperidin-4-yl]amino}-3-(2,2,2-trifluoroethyl)pyrazolo[1,5-a]pyridin-2-yl)prop-2-yn-1-yl]-2,3-dihydro-1H-pyrrolizine-7-carboxamide] returned an SC150 of 25 nM.

The molecule `CN1CC[C@@H](Nc2cccc3c(CC(F)(F)F)c(C#CCNC(=O)c4cnn(C5(O)CC5)c4)nn23)[C@@H](F)C1` [Compound 303, N-[3-(7-{[(3S,4R)-3-fluoro-1-methylpiperidin-4-yl]amino}-3-(2,2,2-trifluoroethyl)pyrazolo[1,5-a]pyridin-2-yl)prop-2-yn-1-yl]-1-(1-hydroxycyclopropyl)-1H-pyrazole-4-carboxamide] gave an SC150 of 14 nM.

In turn, `CN1CC[C@@H](Nc2cccc3c(CC(F)(F)F)c(C#CCNC(=O)c4cnn(C5(F)CC5)c4)nn23)[C@@H](F)C1` [Compound 304] gave an SC150 of 13 nM.

With `CNc1c(C(=O)NCC#Cc2nn3c(N[C@@H]4CCN(C)C[C@@H]4F)cccc3c2CC(F)(F)F)cnn1C(C)(C)C` [Compound 307, 1-(tert-butyl)-N-[3-(7-{[(3S,4R)-3-fluoro-1-methylpiperidin-4-yl]amino}-3-(2,2,2-trifluoroethyl)pyrazolo [1,5-a]pyridin-2-yl)prop-2-yn-1-yl]-5-(methylamino)-1H-pyrazole-4-carboxamide], the SC150 is reported as 32 nM.

On to `CN1CC[C@@H](Nc2cccc3c(CC(F)(F)F)c(C#CCNC(=O)c4cn(C)c(C(F)F)n4)nn23)[C@@H](F)C1` [Compound 309, 2-difluoromethyl-N-[3-(7-{[(3S,4R)-3-fluoro-1-methylpiperidin-4-yl]amino}-3-(2,2,2-trifluoroethyl)pyrazolo[1,5-a]pyridin-2-yl)prop-2-yn-1-yl]-1-methyl-1H-imidazole-4-carboxamide], for which the SC150 was determined as 74 nM.

For the molecule `CN1CC[C@@H](Nc2cccc3c(CC(F)(F)F)c(C#CCNC(=O)c4cnn(CCO)c4)nn23)[C@@H](F)C1` [Compound 310, N-[3-(7-{[(3S,4R)-3-fluoro-1-methylpiperidin-4-yl]amino}-3-(2,2,2-trifluoroethyl)pyrazolo[1,5-a]pyridin-2-yl)prop-2-yn-1-yl]-1-(2-hydroxyethyl)-1H-pyrazole-4-carboxamide], the SC150 was found to be 11 nM.

`CC(C)c1cc(C(=O)NCC#Cc2nn3c(N[C@@H]4CCN(C)C[C@@H]4F)cccc3c2CC(F)(F)F)no1` [Compound 321, N-[3-(7-{[(3S,4R)-3-fluoro-1-methylpiperidin-4-yl]amino}-3-(2,2,2-trifluoroethyl)pyrazolo[1,5-a]pyridin-2-yl)prop-2-yn-1-yl]-5-isopropylisoxazole-3-carboxamide]: the SC150 came out at 99 nM.

Consider `CC(C)c1cc(C(=O)NCC#Cc2nn3c(N[C@@H]4CCN(C)C[C@@H]4F)cccc3c2CC(F)(F)F)on1` [Compound 323, N-[3-(7-{[(3S,4R)-3-fluoro-1-methylpiperidin-4-yl]amino}-3-(2,2,2-trifluoroethyl)pyrazolo[1,5-a]pyridin-2-yl)prop-2-yn-1-yl]-3-isopropylisoxazole-5-carboxamide], for which the SC150 is 57 nM.

On to `CN1CC[C@@H](Nc2cccc3c(CC(F)(F)F)c(C#CCNC(=O)c4ncn(C)n4)nn23)[C@@H](F)C1` [Compound 324, N-[3-(7-{[(3S,4R)-3-fluoro-1-methylpiperidin-4-yl]amino}-3-(2,2,2-trifluoroethyl)pyrazolo[1,5-a]pyridin-2-yl)prop-2-yn-1-yl]-1-methyl-1H-1,2,4-triazole-3-carboxamide], for which the SC150 is listed as 29 nM.

In turn, `CN1CC[C@@H](Nc2cccc3c(CC(F)(F)F)c(C#CCNC(=O)c4cnn(C)n4)nn23)[C@@H](F)C1` [Compound 325, N-[3-(7-{[(3S,4R)-3-fluoro-1-methylpiperidin-4-yl]amino}-3-(2,2,2-trifluoroethyl)pyrazolo[1,5-a]pyridin-2-yl)prop-2-yn-1-yl]-2-methyl-2H-1,2,3-triazole-4-carboxamide] yielded an SC150 of 35 nM.

Consider `CN1CC[C@@H](Nc2cccc3c(CC(F)(F)F)c(C#CCNC(=O)c4cnn(C)c4F)nn23)[C@@H](F)C1` [Compound 327, 5-fluoro-N-[3-(7-{[(3S,4R)-3-fluoro-1-methylpiperidin-4-yl]amino}-3-(2,2,2-trifluoroethyl)pyrazolo[1,5-a]pyridin-2-yl)prop-2-yn-1-yl]-1-methyl-1H-pyrazole-4-carboxamide], for which the SC150 is 27 nM.

`CCn1cc(C(=O)NCC#Cc2nn3c(N[C@@H]4CCN(C)C[C@@H]4F)cccc3c2CC(F)(F)F)c(N)n1` [Compound 329, 3-amino-1-ethyl-N-(3-(7-{[(3S,4R)-3-fluoro-1-methylpiperidin-4-yl]amino}-3-(2,2,2-trifluoroethyl)pyrazolo[1,5-a]pyridin-2-yl)prop-2-yn-1-yl]-1H-pyrazole-4-carboxamide] displayed an SC150 of 9 nM.

In the case of `CN1CC[C@@H](Nc2cccc3c(CC(F)(F)F)c(C#CCNC(=O)c4cccc(C(C)(C)O)c4)nn23)[C@@H](F)C1` [Compound 334, N-[3-(7-{[(3S,4R)-3-fluoro-1-methylpiperidin-4-yl]amino}-3-(2,2,2-trifluoroethyl)pyrazolo[1,5-a]pyridin-2-yl)prop-2-yn-1-yl)-3-(2-hydroxyprop-2-yl)benzamide], the SC150 came out at 33 nM.

`COc1cncc(C(=O)NCC#Cc2nn3c(N[C@@H]4CCN(C)C[C@@H]4F)cccc3c2CC(F)(F)F)c1` [Compound 335, N-[3-(7-{[(3S,4R)-3-fluoro-1-methylpiperidin-4-yl]amino}-3-(2,2,2-trifluoroethyl)pyrazolo[1,5-a]pyridin-2-yl)prop-2-yn-1-yl]-5-methoxynicotinamide] registered an SC150 of 41 nM.

`CCc1cc(C(=O)NCC#Cc2nn3c(N[C@@H]4CCN(C)C[C@@H]4F)cccc3c2CC(F)(F)F)cs1` [Compound 336, 5-ethyl-N-[3-(7-{[(3S,4R)-3-fluoro-1-methylpiperidin-4-yl]amino}-3-(2,2,2-trifluoroethyl)pyrazolo[1,5-a]pyridin-2-yl)prop-2-yn-1-yl]thiophene-3-carboxamide]: the SC150 was found to be 68 nM.
